Data from ChEMBL document CHEMBL3621045, “Structural Insights Lead to a Negamycin Analogue with Improved Antimicrobial Activity against Gram-Negative Pathogens” (ACS Med Chem Lett, 2015).
Values after ≈ are worked out from the molar mass of the structure shown.

Experiments:
Klebsiella pneumoniae = assay: Antibacterial activity against Klebsiella pneumoniae ATCC 700603; assay type: functional
Pseudomonas aeruginosa [1] = assay: Antibacterial activity against mexABCDXY-deficient Pseudomonas aeruginosa PAO1; assay type: functional
Escherichia coli [2] = assay: Inhibition of transcription-translation process in Escherichia coli; assay type: functional
Escherichia coli [3] = assay: microbe, parasite or virus in culture; details: ATCC 25922
Description: Antibacterial activity against Escherichia coli ATCC 25922

Escherichia coli [4] = assay: microbe, parasite or virus in culture; details: ATCC 25922; remark: listed apart in the source
Description: Antibacterial activity against tolC-deficient Escherichia coli ATCC 25922

Acinetobacter baumannii = assay: Antibacterial activity against Acinetobacter baumannii ARC 3495; assay type: functional
Pseudomonas aeruginosa [5] = assay: Antibacterial activity against Pseudomonas aeruginosa PAO1; assay type: functional

MIC (Klebsiella pneumoniae) [µg/mL]	MIC (Pseudomonas aeruginosa [1]) [µg/mL]	IC50 (Escherichia coli [2]; Escherichia coli) [µM]	MIC (Escherichia coli [3]) [µg/mL]	MIC (Escherichia coli [4]) [µg/mL]	MIC (Acinetobacter baumannii) [µg/mL]	MIC (Pseudomonas aeruginosa [5]) [µg/mL]	Compound	IC50 (Escherichia coli [2]) [µM]
128 (≈ 386 µM)	128 (≈ 386 µM)	3.3	256 (≈ 772 µM)	256 (≈ 772 µM)	64 (≈ 193 µM)	256 (≈ 772 µM)	CN(CC(=O)O)NC(=O)C[C@H](N)C[C@@H](O)CNCC1CCNC1 (stereo partly specified)	–
1020 (≈ 4120 µM)	–	51	1020 (≈ 4120 µM)	–	512 (≈ 2060 µM)	> 1020	CN(CC(=O)O)NC(=O)C[C@H](N)C[C@H](O)CN	–
16 (≈ 50.1 µM)	16 (≈ 50.1 µM)	1.1	32 (≈ 100 µM)	16 (≈ 50.1 µM)	16 (≈ 50.1 µM)	32 (≈ 100 µM)	CC(CN)CNC[C@H](O)C[C@@H](N)CC(=O)NN(C)CC(=O)O (stereo partly specified)	–
64 (≈ 200 µM)	128 (≈ 400 µM)	10	128 (≈ 400 µM)	128 (≈ 400 µM)	32 (≈ 99.9 µM)	128 (≈ 400 µM)	CN(CC(=O)O)NC(=O)C[C@H](N)C[C@@H](O)CNCC(N)CN (stereo partly specified)	–
> 512	–	26	> 512	–	> 512	> 512	CN(CC(=O)O)NC(=O)C[C@H](N)C[C@H](F)CN	–
≥ 256	–	12	128 (≈ 488 µM)	–	128 (≈ 488 µM)	≥ 256	CC(C(=O)NN(C)CC(=O)O)[C@H](N)C[C@@H](O)CN (stereo partly specified)	–
> 256	–	> 100	> 256	–	> 256	> 256	NC[C@H](O)C[C@@H](N)CC(=O)NOCC(=O)O	–
64 (≈ 219 µM)	128 (≈ 438 µM)	0.63	64 (≈ 219 µM)	128 (≈ 438 µM)	64 (≈ 219 µM)	512 (≈ 1750 µM)	CN(CC(=O)O)NC(=O)C[C@H](N)C[C@@H](O)CNCCO	–
256 (≈ 1030 µM)	–	12	512 (≈ 2060 µM)	–	128 (≈ 516 µM)	256 (≈ 1030 µM)	CN(CC(=O)O)NC(=O)C[C@@H](N)C[C@H](O)CN	–
> 512	> 512	19	> 512	> 512	> 512	> 512	CC(=O)NCCCNC[C@H](O)C[C@@H](N)CC(=O)NN(C)CC(=O)O	–
128 (≈ 488 µM)	–	7.4	256 (≈ 976 µM)	–	256 (≈ 976 µM)	128 (≈ 488 µM)	CCN(CC(=O)O)NC(=O)C[C@H](N)C[C@@H](O)CN	–
512 (≈ 1670 µM)	1020 (≈ 3340 µM)	11	512 (≈ 1670 µM)	128 (≈ 418 µM)	256 (≈ 836 µM)	> 1020	CN(CC(=O)O)NC(=O)C[C@H](N)C[C@@H](O)CNCCCO	–
–	–	–	–	–	–	–	GENTAMICIN	0.4
> 512	–	78	> 512	–	> 512	> 512	CN(CC(=O)O)NC(=O)C[C@H](N)C[C@@H](O)[C@H](N)CO	–
64 (≈ 256 µM)	–	2.9	64 (≈ 256 µM)	–	128 (≈ 511 µM)	128 (≈ 511 µM)	CN(CC(=O)O)NC(=O)C[C@H](N)C[C@@H](F)CN	–
8 (≈ 25 µM)	32 (≈ 100 µM)	0.44	16 (≈ 50.1 µM)	16 (≈ 50.1 µM)	8 (≈ 25 µM)	32 (≈ 100 µM)	CC(CCN)NC[C@H](O)C[C@@H](N)CC(=O)NN(C)CC(=O)O (stereo partly specified)	–
128 (≈ 418 µM)	> 256	5.3	> 256	128 (≈ 418 µM)	256 (≈ 836 µM)	> 256	COCCNC[C@H](O)C[C@@H](N)CC(=O)NN(C)CC(=O)O	–
64 (≈ 199 µM)	128 (≈ 398 µM)	2.5	256 (≈ 797 µM)	64 (≈ 199 µM)	128 (≈ 398 µM)	256 (≈ 797 µM)	CN(CC(=O)O)NC(=O)C[C@H](N)C[C@@H](O)CNC[C@@H](O)CN	–
32 (≈ 110 µM)	64 (≈ 220 µM)	2.1	64 (≈ 220 µM)	64 (≈ 220 µM)	64 (≈ 220 µM)	128 (≈ 439 µM)	CN(CC(=O)O)NC(=O)C[C@H](N)C[C@@H](O)CNCCN	–
> 64	–	34	> 64	–	> 64	> 64	NC[C@H](O)C[C@@H](N)CC(=O)NNCC(=O)O	–
64 (≈ 232 µM)	–	0.5	64 (≈ 232 µM)	–	64 (≈ 232 µM)	512 (≈ 1850 µM)	CCNC[C@H](O)C[C@@H](N)CC(=O)NN(C)CC(=O)O	–
> 128	–	7.3	> 128	–	128 (≈ 460 µM)	> 128	CN(CC(=O)O)NC(=O)C[C@H](N)C[C@@H](O)[C@@H](N)CO	–
> 64	–	3.2	> 64	–	64 (≈ 242 µM)	> 64	CN(CC(=O)O)NC(=O)C[C@H](N)[C@@H](O)[C@@H](O)CN	–
